4 molecules from patent publication US20100240069A1, “Drug Discovery Assay for Modulators of HIF-Prolyl Hydroxylase Activity” (Boehringer Ingelheim International GmbH, priority 2009, published 2010) can be followed below.

Assay [1] has as its system recombinant rhesus HPH protein. The assay can be described thus: Effect of additives on activity of recombinant rhesus HPH enzyme. It is filed as biochemical, rhesus monkey (Macaca mulatta).
Assay [2] has as its target rhesus HPH2 (Macaca mulatta, UniProt I2CX88). As to the kind of experiment: biochemical. The method, then:
(§1) More specifically, the HPH enzyme assay is conducted in a multi-well plate format. In a suitable buffer, a peptide substrate for the HPH, and a substrate for a protein-based pull down assay, and HPH enzyme are incubated for a period of time and at a temperature sufficient to allow the hydroxylation of the proline-containing substrate to occur. After the incubation period (e.g., 45 min.) the reaction is quenched by the addition of a solution containing the detection reagents. In specific embodiments, the solution comprises EDTA (2.5 mM) and the detection reagents (GST-VBC, Streptavidin-allophycocyanin and Europium-labeled anti-GST Antibody). The detection method in this assay is time-resolved fluorescent assay in which the time-resolved fluorescent signal (excitation at 330 nm; emission at 620 and 665 nm) is read on a plate reader after […] of incubation. The ratio of signal at 665 nm to 620 nm is used to calculate the amount of peptide interaction with GST-VBC as a measure of protein hydroxylation.
(§2) In an exemplary assay, the assay is conducted in a 96 or 384-well plate format. In the 384-well scale, the reaction (10 μl) contains buffer (20 mM MOPS (pH 6.5), 1.5 mM magnesium chloride, 5 mM potassium chloride, 0.1% bovine serum albumin, 1 mM TCEP, 10 μM ferrous ammonium sulfate, and 2 mM sodium ascorbate), substrate (2 μM α-ketoglutarate and 60 nM HIF-1αs peptide (biotin-[…]), enzyme (e.g. 8 nM of HPH3), and an inhibitor from a DMSO solution (1% DMSO final in the assay). After 45 min, the reaction is quenched by the addition of EDTA (2.5 mM) and the detection reagents (GST-VBC, Streptavidin-allophycocyanin and Europium-labeled anti-GST Antibody). The time-resolved fluorescent signal (excitation at 330 nm; emission at 620 and 665 nm) is read on a plate reader after 1 h of incubation. The ratio of signal at 665 nm to 620 nm is used to calculate the amount of peptide interaction with GST-VBC as a measure of protein hydroxylation.
(§3) In the assay, the biotinylated substrate is captured by the Streptavidin which is attached to allophycocyanin. The VBC interacts with the substrate and the interaction is recognized through the aid of an anti GST antibody which is labeled with europium. […] The time-resolved fluorescent signal (excitation at 330 nm; emission at 620 and 665 nm) is read on a plate reader after 1 h of incubation. The ratio of signal at 665 nm to 620 nm is used to calculate the amount of peptide interaction with GST-VBC as a measure of protein hydroxylation.
(§4) The VBC protein complex was generated by co-expression of Glutathione S-Transferase-VHL (von Hippel Lindau), elongin B and elongin C in Escherichia coli followed by purification of the complex using glutathione affinity resin and size-exclusion chromatography.

For assay [3], the target named is rhesus HPH1 (Macaca mulatta, UniProt H9FPE3, INS27EP). The assay can be described thus: biochemical. The method, then: as §1, §2, §3, §4
In assay [4] the target is T1, rhesus HPH3 (Macaca mulatta, UniProt H9FPE4).
T1 construct: fused on or other part: GST tag, N- or C-terminal, for purification
The assay can be described thus: TR-FRET HPH enzyme assay (VBC recognition of hydroxylated peptide), HPH3. It is filed as biochemical, rhesus monkey (Macaca mulatta). Conditions: recombinant rhesus HPH3, inhibitory activity. On the technique in general: TR-FRET usually uses a lanthanide donor and a delayed reading to cut background.
Protocol: More specifically, the HPH enzyme assay is conducted in a multi-well plate format. In a suitable buffer, a peptide substrate for the HPH, and a substrate for a protein-based pull down assay, and HPH enzyme are incubated for a period of time and at a temperature sufficient to allow the hydroxylation of the proline-containing substrate to occur. After the incubation period (e.g., 45 min.) the reaction is quenched by the addition of a solution containing the detection reagents. In specific embodiments, the solution comprises EDTA (2.5 mM) and the detection reagents (GST-VBC, Streptavidin-allophycocyanin and Europium-labeled anti-GST Antibody). The detection method in this assay is time-resolved fluorescent assay in which the time-resolved fluorescent signal (excitation at 330 nm; emission at 620 and 665 nm) is read on a plate reader after 1 of incubation. The ratio of signal at 665 nm to 620 nm is used to calculate the amount of peptide interaction with GST-VBC as a measure of protein hydroxylation.
In an exemplary assay, the assay is conducted in a 96 or 384-well plate format. […]
In the assay, the biotinylated substrate is captured by the Streptavidin which is attached to allophycocyanin. […] The time-resolved fluorescent signal (excitation at 330 nm; emission at 620 and 665 nm) is read on a plate reader after 1 h of incubation. […]

Read-outs that look alike come from different tables or passages of the source.

Sequence of rhesus HPH2 (I2CX88 1-426): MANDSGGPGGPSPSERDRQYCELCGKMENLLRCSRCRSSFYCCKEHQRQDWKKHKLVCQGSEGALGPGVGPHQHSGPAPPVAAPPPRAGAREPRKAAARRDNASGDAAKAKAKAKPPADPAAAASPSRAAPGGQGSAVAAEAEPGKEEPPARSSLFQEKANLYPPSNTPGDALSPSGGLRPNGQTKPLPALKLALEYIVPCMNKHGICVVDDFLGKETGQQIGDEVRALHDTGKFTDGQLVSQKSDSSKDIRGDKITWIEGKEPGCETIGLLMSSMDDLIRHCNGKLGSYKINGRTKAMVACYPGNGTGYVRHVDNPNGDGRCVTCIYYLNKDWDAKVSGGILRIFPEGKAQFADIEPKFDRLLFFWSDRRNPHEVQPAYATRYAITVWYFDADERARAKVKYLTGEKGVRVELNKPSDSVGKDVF
Sequence of rhesus HPH1 (H9FPE3 1-405, stated change not applied): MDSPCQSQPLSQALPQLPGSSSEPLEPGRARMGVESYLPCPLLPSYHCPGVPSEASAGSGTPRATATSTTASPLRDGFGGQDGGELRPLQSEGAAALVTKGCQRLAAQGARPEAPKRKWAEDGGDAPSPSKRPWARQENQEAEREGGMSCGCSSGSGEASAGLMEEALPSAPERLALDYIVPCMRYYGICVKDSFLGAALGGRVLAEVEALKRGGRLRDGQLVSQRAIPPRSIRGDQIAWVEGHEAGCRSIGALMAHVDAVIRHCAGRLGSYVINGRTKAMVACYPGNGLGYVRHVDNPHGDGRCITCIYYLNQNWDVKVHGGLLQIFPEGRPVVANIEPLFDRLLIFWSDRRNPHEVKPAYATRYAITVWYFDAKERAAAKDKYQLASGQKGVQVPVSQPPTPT

Consider `[Cl-].[Cl-].[Co+2]` [CoCl2], for which, in assay [1], the “effect on enzyme activity” value is on record as “inhibited enzyme activity”. The IC50 is the point on the concentration scale where inhibition reaches its midpoint. `NNc1nncc2ccccc12` [Hydralazine]: the IC50 amounted to 320 µM in assay [2] and 400 µM in assay [3]. In the case of `O=C(O)CCC(=O)O` [Succinate], the IC50 was determined as 380 µM in assay [2] (read-out: IC50 HPH2, recombinant rhesus HPH2, inhibitory activity); 200 µM in assay [3] (read-out: IC50 HPH1, recombinant rhesus HPH1, inhibitory activity); 80 µM in assay [4].

Regarding `[Fe+2]` [ferrous iron], in assay [1] (addition to recombinant rhesus HPH enzyme, isoform not stated), the “effect on enzyme activity” value is “increased the activity of the enzyme”.
